# Reference: US20040093079A1, “Compositions and methods for the reduction of post-angioplasty stenosis” (priority 2001, published 2004)
# Assays:
# [1] = target: T1, soluble guanylyl cyclase (sGC) (Homo sapiens, UniProt Q02108+Q02153); settings: cited from earlier work
# T1 sequence (Q02153 1-619): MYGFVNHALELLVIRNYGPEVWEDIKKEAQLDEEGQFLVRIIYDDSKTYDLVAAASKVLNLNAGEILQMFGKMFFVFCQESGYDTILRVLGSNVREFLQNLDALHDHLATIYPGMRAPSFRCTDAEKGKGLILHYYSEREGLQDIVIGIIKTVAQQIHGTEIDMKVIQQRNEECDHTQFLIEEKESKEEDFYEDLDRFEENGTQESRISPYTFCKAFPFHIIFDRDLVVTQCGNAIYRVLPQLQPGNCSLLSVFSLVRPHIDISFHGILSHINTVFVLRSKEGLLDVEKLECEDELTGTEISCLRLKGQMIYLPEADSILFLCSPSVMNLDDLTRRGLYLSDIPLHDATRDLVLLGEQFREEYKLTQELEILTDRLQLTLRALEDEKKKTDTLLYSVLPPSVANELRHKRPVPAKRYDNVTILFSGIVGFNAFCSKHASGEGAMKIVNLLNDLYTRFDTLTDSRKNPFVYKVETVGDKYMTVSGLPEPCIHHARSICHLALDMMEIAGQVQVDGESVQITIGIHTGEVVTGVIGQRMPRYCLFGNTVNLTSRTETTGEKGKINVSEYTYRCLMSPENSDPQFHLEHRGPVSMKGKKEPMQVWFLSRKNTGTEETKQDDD
# T1 sequence (Q02108 1-690): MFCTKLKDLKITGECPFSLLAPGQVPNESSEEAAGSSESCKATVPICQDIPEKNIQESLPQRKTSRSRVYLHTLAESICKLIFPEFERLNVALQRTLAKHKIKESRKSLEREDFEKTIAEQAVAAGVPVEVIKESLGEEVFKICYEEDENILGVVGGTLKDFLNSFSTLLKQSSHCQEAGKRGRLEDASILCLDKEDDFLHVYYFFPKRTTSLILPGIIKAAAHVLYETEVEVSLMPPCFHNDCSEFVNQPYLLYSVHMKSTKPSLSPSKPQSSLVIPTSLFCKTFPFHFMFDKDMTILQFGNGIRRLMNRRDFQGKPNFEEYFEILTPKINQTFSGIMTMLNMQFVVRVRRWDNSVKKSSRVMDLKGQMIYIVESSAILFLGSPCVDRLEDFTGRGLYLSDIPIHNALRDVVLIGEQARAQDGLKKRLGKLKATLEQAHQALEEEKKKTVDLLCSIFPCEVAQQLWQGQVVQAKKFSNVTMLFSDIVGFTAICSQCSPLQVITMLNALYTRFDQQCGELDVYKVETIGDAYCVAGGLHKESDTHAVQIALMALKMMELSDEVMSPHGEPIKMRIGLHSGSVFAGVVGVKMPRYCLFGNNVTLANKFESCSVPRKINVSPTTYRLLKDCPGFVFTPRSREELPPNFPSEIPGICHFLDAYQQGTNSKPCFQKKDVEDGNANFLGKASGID
# [2] = system: vessel wall cGMP (sGC/cGMP system) in left carotid artery; test: Cyclic GMP levels by RIA in balloon injured left carotid artery sections after perivascular YC-1; type: in vivo, rat
# Protocol: Cyclic GMP levels were measured in vessel samples with a competitive RIA using ^125I-labeled cGMP, following instructions from the manufacturer (Amersham Pharmacia Biotech, Piscataway, N.J.). […]
# [3] = system: balloon injured left carotid artery (neointima formation); test: Morphometric and histologic analysis of balloon-injured left carotid artery 2 weeks post-injury; type: in vivo, rat
# Protocol: The established rat carotid artery (CA) provided the model of balloon angioplasty to illustrate the in vivo arterial response to injury. Male Sprague Dawley rats (Harlan, Indianapolis, Ind.) weighing an average 497 g were anesthetized with a combination anesthetic (ketamine, zylazine, and acepromazine; 0.5-0.7 ml/kg, IM; VetMed Drugs, Houston, Tex.), and the left CA and external carotid branch exposed.
# A Fogarty 2F embolectomy catheter (Baxter Healthcare Corp., Irvine, Calif.) was introduced into the external carotid branch through an arteriotomy incision and advanced to the aortic arch. The balloon was inflated and withdrawn three times with rotation. The catheter was removed and the external carotid ligated. The overlying tissue was sutured and the skin closed with rodent wound clips.
# In one embodiment, the entire length of the left CA was balloon injured, immediately followed by perivascular application of YC-1 (1 mg) on the distal section. Sites where tissues were taken for “distal+YC-1” and “proximal−YC-1” are indicated. The right CA served as an uninjured control. EC=external carotid branch; IC=internal carotid branch.
# Immediately following balloon injury, at least about 200 μl of a 25% solution of a copolymer gel (Pluronic F-127; BASF Corporation, Mount Olive, N.J.) plus YC-1 (at least about 1 mg in 50 μl DMSO; Calbiochem, La Jolla, Calif.) was administered topically to the exposed adventitia of the distal CA section. […] In all experiments, the entire length of the left CA was injured (avg. 22 mm), while the contralateral right CA served as an unmanipulated untreated control. Only the distal half of the injured left CA was exposed during the surgery, and this section (approximately 11 mm) was treated with YC-1 (or empty gel) while the proximal half remained untreated. A cohort of animals that was balloon-injured and not exposed to any gel or other treatment served as a separate control group.
# Acute studies illustrating enzyme and cGMP induction used freshly obtained tissues that were removed from the sacrificed animal and immediately snap-frozen. In one embodiment, two week studies were performed and morphologic remodeling of the vessel wall was monitored in tissue from animals that were perfusion-fixed transcardially using warmed PBS followed by 10% buffered formalin phosphate. Tissues were fixed, processed by standard procedures, and paraffin-embedded, procedures that are well-known to those of ordinary skill in the art of histology. Five micron sections were cut using a rotary microtome and placed on pre-treated slides. For Verhoff's elastic tissue staining, slides were deparaffinized and stained with Verhoff's solution of alcoholic hematoxylin, ferric chloride, and potassium iodine. Slides differentiated with ferric chloride and counterstained with Van Gieson's solution containing 1% acid fuchsin and picric acid.
# Microscopic quantitation of vessel dimensions was performed using Zeiss Image 3.0 (Media Cybernetics) and Adobe Photoshop 4.0™ (Adobe Systems) software systems linked through a CCD color camera (Leaf Microlumina, Leaf Systems, USA) to a Zeiss Axioskop 50 light microscope (Carl Zeiss, Germany). Images were measured for perimeters and areas corresponding to internal and external elastic laminae and lumen. Numerical transformations provided data for neointimal and medial wall areas and vessel diameters.
# FIG. 6 depicts representative morphometric analyses for (a) neointimal cross-sectional area, (b) neointimal area/medial wall area ratio, (c) neointimal thickness and (d) medial wall area [(a), (b) and (c) statistically significant with p<0.001; (d) statistically significant with p<0.05]. Data for balloon injured left CA distal sections exposed to YC-1 (“distal+YC-1”) and for balloon injured left CA proximal sections not exposed to YC-1 (“proximal−YC-1”) are shown. Values represent mean±SE. For all parameters n=6 animals in the control group and n=9 animals in the YC-1 treated group.
# vascular HO-1 = settings: pharmacologic administration of hemin; cited from earlier work
molecule,measurement,setting,value
"[C-]#[O+] [CO, carbon monoxide]",activation of the purified enzyme (sGC),[1],4- to 6 fold
"[N]=O [NO, nitric oxide]",activation of the purified enzyme (sGC),[1],400 fold
"OCc1ccc(-c2nn(Cc3ccccc3)c3ccccc23)o1 [YC-1, 3-(5′-hydroxymethyl-2′-furyl)-1-benzyl indazole]",YC-1 induced alterations in cGMP,[2]; CA sections from a separate group of uninjured rats (data not shown),do not show YC-1 induced alterations in cGMP
same,cGMP content,"[2]; injured CA distal sections exposed to YC-1 (1 mg in gel), 24 hours post-injury, mean±SE, n=5, proximal unexposed sections 0.64±0.11, p=0.012",1.23±0.13
same,histology of elastin-stained cross-section: adventitia and collagen staining,"[3]; FIG. 5 panel (B), distal section treated with 1 mg YC-1, 2 weeks post-injury",decreased adventitia and reduced collagen staining
same,lengths of internal elastic laminae and external elastic laminae,"[3]; between and among all treatment groups, 2 weeks post-injury",No differences were detected
same,"neointimal cross-sectional area, attenuation","[3]; distal YC-1 (1 mg) sections vs proximal unexposed sections of same vessel, 2 weeks post-injury, p<0.001, n=9",−74%
same,"neointimal thickness, attenuation","[3]; distal YC-1 (1 mg) sections vs proximal unexposed sections, 2 weeks post-injury, p<0.001, n=9",-76%
same,"medial wall cross-sectional area, diminution","[3]; distal YC-1 (1 mg) sections vs proximal unexposed sections, 2 weeks post-injury, p<0.05, n=9",−12%
same,"neointimal area/medial wall area ratio, attenuation","[3]; distal YC-1 (1 mg) sections vs proximal unexposed sections, 2 weeks post-injury, p=0.001, n=9",−72%
same,stimulation of CO-induced sGC (specific activity),[1],approximately 400 fold
hemin,vascular HO-1 expression,vascular HO-1,upregulated vascular HO-1
